Results: patent US11708338B2, “Substituted phenyl sulfonyl phenyl triazole thiones and uses thereof” (Neuropore Therapies, Inc., priority 2017, dated 2023)

What was measured:
Format in all cases: in vivo, mouse
[1] = system: L61 ASYN transgenic mice; test: Grip strength evaluation (motor performance), 3 month administration study; conditions: 5 mg/kg and 10 mg/kg i.p. daily, after 70 days of treatment
Procedure: The effects of Compound 1 on the motor performance deficits (grip strength) and a marker of neuroinflammation (Translocator Protein (18 kDa)) were assessed in both L61 ASYN transgenic and non-transgenic mice in a 3 month administration study.
(§1) Compound 1 was injected into L61 ASYN transgenic mice and non-transgenic control mice (i.p., once daily) at doses of 5 and 10 mg/kg for 3 months (79 total mice, n=14-17 mice per treatment group). The vehicle control consisted of a solution containing 5% DMSO+20% Cremphor EL+0.9% normal saline. The baseline grip strength of mice was evaluated prior to starting treatments for the 3 month study, and then re-evaluated following 70 days of treatment with vehicle or Compound 1 (5 or 10 mg/kg, i.p. daily).
At baseline, there was a statistically significant grip strength deficit in transgenic mice compared to non-transgenic mice. Treatment with Compound 1 (5 & 10 mg/kg) improved L61 ASYN transgenic grip strength deficits.

[2] = system: microtubule-associated protein 1A/1B-light chain 3 (LC3); test: LC3 immunolabeling (IHC) in brain, 1 month administration study; conditions: L61 ASYN transgenic mice, 1, 5 or 10 mg/kg per day i.p.
Procedure: Alpha-synuclein (ASYN) is a neuronal protein whose dysregulation has been implicated in the pathogenesis of PD. The effects of Compound 1 on alpha-synuclein aggregation were assessed in both L61 ASYN transgenic and non-transgenic mice in a 1 month administration study. L61 ASYN transgenic mice (36 total mice, n=8-11 mice per treatment group) were injected (i.p.) with 1, 5, or 10 mg/kg of Compound 1 or a vehicle control (5% DMSO+20% Cremphor EL+0.9% normal saline) per day for 1 month. Non-transgenic mice (18 total mice, n=8-11 mice per treatment group) were used as a control and were injected daily (i.p.) with 10 mg/kg of Compound 1 or a vehicle control (5% DMSO+20% Cremphor EL+0.9% normal saline) per day for 1 month. At the end of one month, the mice were sacrificed, and immunohistochemical (IHC) detection of total alpha-synuclein deposits, insoluble alpha-synuclein deposits (PK+resistant), microtubule-associated protein 1A/1B-light chain 3 (LC3), and monomeric alpha-synuclein levels were assessed in the harvested brain tissues.

[3] = system: insoluble alpha-synuclein deposits (PK+resistant); test: IHC quantification of insoluble (PK+resistant) alpha-synuclein deposits in brain, 1 month administration study; conditions: L61 ASYN transgenic mice, FIG. 9A
Procedure: Multiple in vivo administration studies of Compound 1 were carried out in the Line 61 (L61) mThy1-alpha-synuclein transgenic mouse model of Parkinson's disease (PD). The mThy1-alpha-synuclein transgenic mouse model overexpresses wild-type human ASYN under the Thy-1 promoter studies (commonly referred to as Line 61 transgenic mice; Rockenstein et al., 2002). […]
Alpha-synuclein (ASYN) is a neuronal protein whose dysregulation has been implicated in the pathogenesis of PD. The effects of Compound 1 on alpha-synuclein aggregation were assessed in both L61 ASYN transgenic and non-transgenic mice in a 1 month administration study. […] At the end of one month, the mice were sacrificed, and immunohistochemical (IHC) detection of total alpha-synuclein deposits, insoluble alpha-synuclein deposits (PK+resistant), microtubule-associated protein 1A/1B-light chain 3 (LC3), and monomeric alpha-synuclein levels were assessed in the harvested brain tissues.
The quantification and IHC staining of PK-resistant alpha-synuclein were performed using known techniques (Rockenstein et al., J Neurosci Res. 2002, 68(5):568-78; Tanji et al., Acta Neuropathol. 2010, 120, 145-154; Nuber et al., Brain. 2013, February; 136(Pt 2):412-32).

[4] = system: Translocator Protein (18 kDa) (TSPO); test: TSPO immunofluorescence in cortex of L41 APP transgenic mice; conditions: 5 mg/kg daily i.p.
Procedure: Neuroinflammation is associated with increased expression of the 18-kDa translocator protein (TSPO), which is present on the mitochondria of activated microglia, astroglia and macrophages (Crawshaw and Robertson 2017). The effects of Compound 1 on TSPO expression were assessed in both L41 APP transgenic and non-transgenic mice in a 1 month administration study. L41 APP transgenic mice (36 total mice, n=8-11 mice per treatment group) were injected (i.p.) daily with 5 mg/kg of Compound 1 or a vehicle control (5% DMSO+20% Cremphor EL+0.9% normal saline) for […]. Non-transgenic mice (18 total mice, n=8-11 mice per treatment group) were used as a control and were injected daily (i.p.) with 10 mg/kg of Compound 1 (data not shown) or a vehicle control (5% DMSO+20% Cremphor EL+0.9% normal saline) for 1 month. After 30 days, the mice were sacrificed, and immunofluoresence (IF) detection of TSPO were assessed in the harvested brain tissues.
The harvested brain tissues were drop fixed using 4% PFA and sectioned on a vibratome, and representative sections corresponding to the neuropil of cortex were assessed for TSPO with standard immunofluorescence (IF) staining.

[5] = system: Translocator Protein (18 kDa) (TSPO); test: TSPO immunofluorescence in cortex of L61 mice, 3 month administration study; conditions: L61 ASYN transgenic mice, 5 and 10 mg/kg i.p. daily, 3 months
Procedure: as §1
Neuroinflammation is associated with increased expression of the 18-kDa translocator protein (TSPO), which is a marker for inflammation and is present on the mitochondria of activated microglia, astroglia and macrophages (Crawshaw and Robertson 2017). The effects of Compound 1 on the levels of Translocator Protein (18 kDa) (TSPO) were assessed in both L61 ASYN transgenic and non-transgenic mice in the aforementioned 3 month administration study. At the end of the study, the mice were sacrificed, and immunofluorescence (IF) detection of TSPO were assessed in the harvested brain tissues.
FIGS. 15A-B show the levels of TSPO immunolabeling in representative cross-sections of the cortex of the mice. […]

O=S(=O)(c1ccc(-n2cn[nH]c2=S)cc1)c1ccc(Cl)c(C(F)(F)F)c1 [Compound 1, 4-(4-((4-chloro-3-(trifluoromethyl)phenyl)sulfonyl)phenyl)-2,4-dihydro-3H-1,2,4-triazole-3-thione]
grip strength vs vehicle-treated transgenic mice [1]: higher grip strengths than vehicle-treated transgenic mice in a statistically significant manner | levels of LC3 immunolabeling in cortex [2]: increased | levels of LC3 immunolabeling in hippocampus (increase) [2]: not | levels of LC3 immunolabeling in striatum [2]: increased | reduction of PK-resistant alpha synuclein levels in cortex as compared to vehicle-treated mice ([3]; 5 mg/kg daily i.p.): 37% | reduction of PK-resistant alpha synuclein levels in cortex as compared to vehicle-treated mice ([3]; 10 mg/kg daily i.p.): 36% | cortical TSPO level vs vehicle-treated Line 41 mice, quantification (FIG. 20) [4]: reduces the TSPO level in a statistically significant manner | levels of TSPO in cortex vs vehicle control [5]: significantly decreased
